{"source": "patent US20170216328A1", "about": "“METHODS AND COMPOSITIONS FOR MICROBIOME ALTERATION” (Ritter Pharmaceuticals, Inc., priority 2014, published 2017)", "tested_on": "Bifidobacterium species and strains", "assay": "Comparative growth of Bifidobacterium species and strains in scratch MRS with 2% carbohydrate", "assay_type": "cell-based", "method": "The objective of the study was to determine the ability of various Bifidobacterium species and strains to grow on galactooligosaccharides\nThe growth of Lactobacillus and Bifidobacterium strains was evaluated in scratch MRS (Table 16) supplemented with 2% of a carbohydrate solution. The carbohydrates used in the experiments were: Glucose—Fisher; Lactose—Fisher; GOS1-95% GOS purity from Inalco SPA—Provided by Ritter Pharmaceuticals; GOS2-90% GOS purity from GTC—provided by Ritter Pharmaceuticals.\nCarbohydrate stock solutions were filter sterilized and then added to either a scratch MRS formulation (Table 16), or a semisynthetic medium (Table 17).\nLactobacillus and Bifidobacterium cultures were propagated in MRS broth overnight, and then transferred once through the test medium. For growth experiments, cultures were inoculated into the MRS scratch medium containing one of the 4 carbohydrates to be examined. Growth was monitored either: **automatically, using a FLUOStar OPTIMA microtiter plate reader to monitor the change in absorbance (A600) as a function of the time. The strains were incubated at 37 C aerobically for these experiments; or ** manually, using a standard spectrophotometer to monitor the change in OD600 nm over time, in 5 ml liquid culture tubes. These cultures were incubated anaerobically at 37° C. in a COY anaerobic chamber, flushed with anaerobic gas. […]"}
{"smiles": "OC[C@H]1O[C@@H](O[C@H]2[C@H](O)[C@@H](O)C(O)O[C@@H]2CO)[C@H](O)[C@@H](O)[C@H]1O", "note": "(stereo partly shown) [lactose]", "values": [{"measurement": "Growth of Bifidobacterium strains on lactose", "result": "none of the Bifidobacterium strains used in these experiments grew on lactose, except for B. pseudolongum"}]}
